Assay results reported in US5866567A, “Diazepinones, their production and use” (Takeda Chemical Industries, Ltd., priority 1995, dated 1999).
Structures can show the parent of a compound that is named as a salt.

system: not given; test: not given; details: repeated administration, receptor down-regulation; cited from earlier work

| Molecule | production of testosterone |
| --- | --- |
| Leuprolerin acetate | cut down on the production of testosterone to the castrated level |

molecular target: T1, Human GnRH receptor (Homo sapiens, UniProt P30968); test: Human GnRH receptor binding inhibition assay (125I-leuprolerin, membrane fraction of CHO cells expressing human GnRH receptors); details: CHO cell membrane fraction with human GnRH receptors, 25° C., 60 minutes, concentration series, Hill plot, read-out: Binding inhibitory activity (IC50)
T1 construct: expressed in transfected cells; host or cells: CHO (Chinese hamster ovary) cells, membrane fraction
T1 sequence (P30968 1-328): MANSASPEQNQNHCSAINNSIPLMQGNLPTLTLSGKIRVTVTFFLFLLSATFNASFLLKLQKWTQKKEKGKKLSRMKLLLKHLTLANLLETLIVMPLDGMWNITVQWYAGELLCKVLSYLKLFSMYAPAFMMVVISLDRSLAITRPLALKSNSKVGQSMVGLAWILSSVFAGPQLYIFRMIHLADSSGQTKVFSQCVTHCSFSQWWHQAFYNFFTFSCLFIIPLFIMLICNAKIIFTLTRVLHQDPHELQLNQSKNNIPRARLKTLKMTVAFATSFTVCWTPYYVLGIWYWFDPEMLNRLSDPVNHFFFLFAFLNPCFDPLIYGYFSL
Description: Human GnRH receptor binding inhibition assay
(A) Preparation of ^125 I-leuprolerin
Ten (10) μl of 3×10^-4 M aqueous leuprolerin solution and 10 μl of 0.01 mg/ml lactoperoxidase solution were taken in a tube, and 10 μl of Na^125 I solution (37 MBq) was added. After stirring, 10 μl of 0.001% H2 O2 was added and the reaction was conducted at room temperature for 20 minutes. The reaction was stopped by adding 700 μl of 0.05% TFA solution, and the reaction mixture was purified by reversed HPLC. The HPLC parameters are shown below. The retention time of ^125 I-leuprolerin was 26-27 minutes.
Column: TSKgel ODS-80™ CTR (4.6 mm×10 cm)
Eluent: Solvent A (0.05%TFA) Solvent B (40%CH3 CN-0.05%TFA)
Min. 0 (100% Solvent A)--Min. 3 (100% Solvent A)--Min. 7 (50% Solvent A+50% Solvent B)--Min. 40 (100% Solvent B) Elution temperature: room temperature Elution flow rate: 1 ml/min.
CHO cells (10^9 cells) with human GnRH receptors expressed were floated on phosphate-buffered saline containing EDTA (PBS-EDTA) and centrifuged at 100×g for 5 minutes. To the pellet obtained was added 10 ml of a cell homogenate buffer (10 mM NaHCO3, 5 mM EDTA, pH 7.5) and the mixture was homogenized using a Polytron homogenizer. The homogenate was centrifuged at 400×g for 15 minutes and the supernatant was taken in an ultracentrifuge tube and recentrifuged at 100,000×g for 1 hour. The membrane fraction thus obtained as a pellet was suspended in 2 ml of assay buffer and centrifuged at 100,000×g for 1 hour. The membrane fraction recovered was resuspended in 20 ml of assay buffer and the suspension was portioned, stored at -80° C., and thawed when needed.
(C) Determination of the ^125 I-leuprolerin binding inhibition rate
The membrane fraction prepared in Step (B) was diluted with assay buffer to 200 μg/ml and the dilution was portioned into tubes, 188 μl per tube. Then, 2 μl of 2 mM solution of the test compound in 60% DMSO and 10 μl of 38 nM ^125 I-leuprolerin solution in the same solvent were simultaneously added to the tubes. To determine the maximum binding, a test mixture of 2 μl of 60% DMSO and 10 μl of 38 nM ^125 I-leuprolerin solution in the same solvent was prepared. For the determination of nonspecific binding, a test mixture of 2 μl of 100 μM leuprolerin solution in 60% DMSO and 10 μl of 38 nM solution of ^125 I-leuprolerin in the same solvent was also prepared. The mixtures were respectively allowed to react at 25° C. for 60 minutes and the reaction product in each tube was filtered through a poly(ethylene imine)-treated Whatman glass filter (GF-F) under suction. The radioactivity of ^125 I-leuprolerin remaining on the filter was determined using a γ-counter.
Using the measured values, the following equation was calculated to find the binding inhibition rate for each test compound.
Binding inhibition (%)=(TB-SB)/(TB-NSB)×100
[SB: radioactivity with the compound added
TB: maximum bound radioactivity
NBS: nonspecifically bound radioactivity]
Using a concentration series of each test compound, the concentration of the compound which inhibited the binding by 50% (IC50) was calculated by Hill plot.

| Molecule | IC50 [nM] |
| --- | --- |
| COc1ccc(C(=O)Nc2ccc(CN3C(=O)[C@H]4CCC[C@H]4N(C(=O)CN4C(=O)c5ccccc5C4=O)c4ccccc43)cc2)cc1 (relative stereo) [Example 15, (3aR*,10aS*)-9-[4-(4-Methoxybenzamido)benzyl]-4-(phthalimidoacetyl)-2,3,3a,4,9,10a-hexahydrobenzo[b]cyclopenta[e][1,4]diazepin-10(1H)-one] | 200 |
| O=C(CCc1ccccc1)Nc1ccc(CN2C(=O)[C@H]3CCC[C@H]3N(C(=O)CN3C(=O)c4ccccc4C3=O)c3ccccc32)cc1 (relative stereo) [Example 17, (3aR*,10aS*)-9-[4-(3-Phenylpropionamido)benzyl]-4-(phthalimidoacetyl)-2,3,3a,4,9,10a-hexahydrobenzo[b]cyclopenta[e][1,4]diazepin-10(1H)-one] | 500 |
| O=C(COc1ccccc1)Nc1ccc(CN2C(=O)[C@H]3CCC[C@H]3N(C(=O)CN3C(=O)c4ccccc4C3=O)c3ccccc32)cc1 (relative stereo) [Example 18, (3aR*,10aS*)-9-[4-(Phenoxyacetamido)benzyl]-4-(phthalimidoacetyl)-2,3,3a,4,9,10a-hexahydrobenzo[b]cyclopenta[e][1,4]diazepin-10(1H)-one] | 600 |
| O=C(Nc1ccc(CN2C(=O)[C@H]3CCC[C@H]3N(C(=O)CN3C(=O)c4ccccc4C3=O)c3ccccc32)cc1)c1ccc2ccccc2c1 (relative stereo) [Example 21, (3aR*,10aS*)-9-[4-(2-Naphthoylamino)benzyl]-4-(phthalimidoacetyl)-2,3,3a,4,9,10a-hexahyrobenzo[b]cyclopenta[e][1,4]diazepin-10(1H)-one] | 200 |
| O=C(NCc1ccccc1)Nc1ccc(CN2C(=O)[C@H]3CCC[C@H]3N(C(=O)CN3C(=O)c4ccccc4C3=O)c3ccccc32)cc1 (relative stereo) [Example 25, (3aR*,10aS*)-9-[4-(3-benzylureido)benzyl]-4-(phthalimidoacetyl)-2,3,3a,4,9,10a-hexahydrobenzo[b]cyclopenta[e][1,4]diazepin-10(1H)-one] | 30 |
| O=C(NCc1ccccc1)Nc1ccc(CN2C(=O)[C@H]3CCC[C@H]3N(C(=O)CN3C(=O)C4=C(CCCC4)C3=O)c3ccccc32)cc1 (relative stereo) [Example 26, (3aR*,10aS*)-9-[4-(3-Benzylureido)benzyl]-4-(2H-1,3-dioxo-1,3,4,5,6,7-hexahydroisoindole-2-acetyl)-2,3,3a,4,9,10a-hexahydrobenzo[b]cyclopenta[e][1,4]diazepin-10(1H)-one] | 40 |
| C[C@@H](NC(=O)Nc1ccc(CN2C(=O)[C@H]3CCC[C@H]3N(C(=O)CN3C(=O)c4ccccc4C3=O)c3ccccc32)cc1)c1ccccc1 (relative stereo) [Example 27, (3aR*,10aS*)-9-[4-[3-((R)-1-Phenylethyl)ureido]-benzyl]-4-(phthalimidoacetyl)-2,3,3a,4,9,10a-hexahydrobenzo[b]cyclopenta[e][1,4]diazepin-10(1H)-one] | 20 |
| C[C@H](NC(=O)Nc1ccc(CN2C(=O)[C@H]3CCC[C@H]3N(C(=O)CN3C(=O)c4ccccc4C3=O)c3ccccc32)cc1)c1ccccc1 (relative stereo) [Example 28, (3aR*,10aS*)-9-[4-[3-((S)-1-Phenylethyl)ureido]-benzyl]-4-(phthalimidoacetyl)-2,3,3a,4,9,10a-hexahydrobenzo[b]cyclopenta[e][1,4]diazepin-10(1H)-one] | 300 |
| O=C(NCCc1ccccc1)Nc1ccc(CN2C(=O)[C@H]3CCC[C@H]3N(C(=O)CN3C(=O)c4ccccc4C3=O)c3ccccc32)cc1 (relative stereo) [Example 30, (3aR*,10aS*)-9-[4-[3-(2-Phenylethyl)ureido]benzyl]-4-(phthalimidoacetyl)-2,3,3a,4,9,10a-hexahydrobenzo[b]-cyclopenta[e][1,4]diazepin-10(1H)-one] | 40 |
| O=C(NCc1ccc(F)cc1)Nc1ccc(CN2C(=O)[C@H]3CCC[C@H]3N(C(=O)CN3C(=O)c4ccccc4C3=O)c3ccccc32)cc1 (relative stereo) [Example 31, (3aR*,10aS*)-9-[4-[3-(4-Fluorobenzyl)ureido]benzyl]-4-(phthalimidoacetyl)-2,3,3a,4,9,10a-hexahydrobenzo[b]-cyclopenta[e][1,4]diazepin-10(1H)-one] | 30 |
| COc1ccc(CNC(=O)Nc2ccc(CN3C(=O)[C@H]4CCC[C@H]4N(C(=O)CN4C(=O)c5ccccc5C4=O)c4ccccc43)cc2)cc1 (relative stereo) [Example 32, (3aR*,10aS*)-9-[4-[3-(4-Methoxybenzyl)ureido]-benzyl]-4-(phthalimidoacetyl)-2,3,3a,4,9,10a-hexahydro-benzo[b]cyclopenta[e][1,4]diazepin-10(1H)-one] | 40 |
| O=C(NCc1ccncc1)Nc1ccc(CN2C(=O)[C@H]3CCC[C@H]3N(C(=O)CN3C(=O)c4ccccc4C3=O)c3ccccc32)cc1 (relative stereo) [Example 34, (3aR*,10aS*)-4-(Phthalimidoacetyl)-9-[4-[3-(4-pyridylmethyl)ureido]benzyl]-2,3,3a,4,9,10a-hexahydrobenzo[b]cyclopenta[e][1,4]diazepin-l0(1H)-one hydrochloride] | 80 |

system: GnRH; test: not given; details: relative to native GnRH; cited from earlier work

| Molecule | times as active as native GnRH |
| --- | --- |
| Leuprolerin acetate | 20-50 times |
